Reference: US9952300B2, “Dynamic contrast enhanced MRI method and agents for the assessment of the macromolecular transport within pathologic tissues” (BRACCO IMAGING S.P.A., priority 2012, dated 2018)
Where “and” joins values, the source holds several entries; their conditions need not be identical. Identical values can stand only once.

Legend:
[1] = tested on: PC-3 human prostate adenocarcinoma tumor; assay: DCE-MRI of contrast agent kinetics in PC-3 tumors of Axitinib- or vehicle-treated mice (Example 3); format: in vivo, NCR athymic nude mice; settings: contrast agent 100 μmol/kg i.v., one value per animal, trisodium salt
Description: The comparative test has been performed using NCR athymic nude mice implanted with PC-3 cells (a human prostate cancer line) and treated with Axitinib®, a VEGFRs inhibitor, (to modulate the tumor vascular permeability) by a protocol which timing is for instance schematized in FIG. 1. Scope of the test was to compare the image-based analysis of the albumin distribution in a human tumor model as extracted from the analysis of a time-serie of MRI images (with spatial resolution of around 110 μm) acquired with the method of the invention after injection of B22956/1 as contrast agent, and the distribution of FITC-BSA (Fluorescent isothiocyanate Bovine Serum Albumin) albumin inside and outside vessels histologically determined from fluorescent microscopy images on a scale of microns.
In particular, the trans-endothelial permeability (K^Trans) and the fractional plasma volume (fPV) were calculated from dynamic MR data by application of a bi-compartmental pharmacokinetic model, while the Initial Area Under the Curve (IAUCT) was calculated in several time windows, typically comprised between the contrast agent administration and the end of the MRI acquisition. The macromolecular penetration in tumors was, then, probed by fluorescently labelled Bovine Serum Albumin administered via tail vein after the last MRI session. Microscopic images were used to quantify the percentage of area stained by fluorescent albumin in the tumor, as a measure of the blood vessel density, using an automatic thresholding method. The albumin extravasation in the tumor extravascular space was assessed based on the fluorescence found out of the blood vessels from histological samples taken from both of tumor rim and core, for instance as schematized in FIG. 2. In particular, the albumin florescence was averaged over all pixels at a given distance from the nearest vessel and stored as a function of distance from the vessels walls, by use of an optimized procedure, for instance schematized in FIG. 3, providing both a quantification of the availability of the albumin in the extravascular space of the concerned tumor, namely the amount of the extravasated FITC-Albumin, and the decay of its concentration over the distance x from a nearest vessel, or, in other words, its actual distribution and dilution within the extracellular spaces (for instance as schematized in FIG. 4).
Human prostate adenocarcinoma cells (PC-3) were supplied by ATCC (American Type Culture Collection) and grown in Hams F-12 medium supplemented with 10% foetal bovine serum, 2 mM glutamine, 100 IU/mL penicillin and 100 μg/mL streptomycin (all from Lonza, Verviers, Belgium). […] Tumour development was followed by palpation and measured by calliper every 2-3 days until the end of the experiment. […]

[2] = tested on: WM1552/5 melanoma xenografts; assay: DCE-MRI with B22956/1 in WM1552/5 melanoma xenografts 24 h after PTX (Example 4); format: in vivo, NCr-nu/nu mice; settings: WM1552/5 tumor rim and core, 24 h after PTX 20 mg/kg i.v.
Description: Indeed, the potential of non-covalent protein binding contrast agents according the invention to provide in vivo suitable estimates of the effect promoted by a therapeutic agent such as, for instance, an EPR-enhancing agent, i.e. an agent devoted to enhance the uptake of the co-administered macromolecular drug in the tumor area, has been investigated by means of Dynamic Contrast Enhanced MRI tests performed in vivo with B22956/1, used as representative agent according to the invention, on melanoma cancer model xenografts in nude mice treated with vehicle or Paclitaxel (PTX). […] Jain, R. K. & Stylianopoulos, T. Nat. Rev. Clin. Oncol. 2010, 7: 653-664).
Six- to eight-week-old female NCr-nu/nu mice, obtained from Harlan (Correzzana, Italy) were maintained under specific pathogen-free conditions and handled using aseptic procedures throughout the whole study. […]
PTX- and vehicle-treated nude mice bearing WM1552/5 melanoma xenografts (N=4 mice per group) were analyzed by DCE-MRI 24 h after PTX administration. […] Pre-contrast T1 values in tumors were measured using a multislice variable flip-angle FLASH. […]
Differences in the kinetics of distribution of the contrast agent (DCE-MRI) were analyzed by Mann Whitney U test.

SMILES	kTrans (Transfer Constant) ([1]; tumor core)	kTrans (Transfer Constant) ([1]; tumor rim)	K^trans measured with B22956/1, pre-treated versus vehicle [2]	fractional plasma volume fPV (%) measured with B22956/1, pre-treated versus vehicle [2]
C[C@H](CCC(=O)[O-])[C@H]1CC[C@H]2[C@@H]3CC[C@@H]4C[C@@H](NC(=O)CC[C@@H](C(=O)[O-])N(CCN(CC(=O)[O-])CC(=O)[O-])CCN(CC(=O)[O-])CC(=O)[O-])CC[C@]4(C)[C@H]3C[C@H](O)[C@]12C.[Gd+3].[Na+].[Na+].[Na+] [B22956/1, Gadocoletic acid trisodium salt]	1.09 mL\(min × g) × 100 and 0.98 mL\(min × g) × 100 (2×) and 0.40 mL\(min × g) × 100 (2×) and 1.81 mL\(min × g) × 100 and 0.31 mL\(min × g) × 100 and 0.95 mL\(min × g) × 100 and 0.44 mL\(min × g) × 100 and 1.77 mL\(min × g) × 100 and 1.82 mL\(min × g) × 100 and 1.57 mL\(min × g) × 100 and 1.29 mL\(min × g) × 100 and 1.85 mL\(min × g) × 100 and 1.20 mL\(min × g) × 100	2.45 mL\(min × g) × 100 and 1.91 mL\(min × g) × 100 (2×) and 0.83 mL\(min × g) × 100 and 2.30 mL\(min × g) × 100 and 1.06 mL\(min × g) × 100 and 1.76 mL\(min × g) × 100 and 1.33 mL\(min × g) × 100 and 3.00 mL\(min × g) × 100 and 1.68 mL\(min × g) × 100 and 2.77 mL\(min × g) × 100 and 2.15 mL\(min × g) × 100 and 2.37 mL\(min × g) × 100 and 1.17 mL\(min × g) × 100 and 3.22 mL\(min × g) × 100 and 2.24 mL\(min × g) × 100	–	–
CC(=O)O[C@H]1C(=O)[C@@]2(C)[C@H]([C@H](OC(=O)c3ccccc3)[C@]3(O)C[C@H](OC(=O)[C@H](O)[C@@H](NC(=O)c4ccccc4)c4ccccc4)C(C)=C1C3(C)C)[C@]1(OC(C)=O)CO[C@@H]1C[C@@H]2O [PTX, Paclitaxel]	–	–	statistically significant increase	statistically significant increase
